Measurements taken from ChEMBL document CHEMBL1201862, “PubChem BioAssay data set” (2004).
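Each compound was tested at five concentrations against cells in 96-well plates for 48 hours. GI50 marks 50% less growth.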 Calls of active or inactive are those of the source. No stated cut-off is given here; in the data, active = GI50 up to about 1.1 µM and inactive = higher.

Tests used:
Test in all cases: NCI-60 cell line screen, 48 h
IGROV-1 = test system: IGROV-1
SK-MEL-5 = test system: SK-MEL-5
MDA-MB-231 = test system: MDA-MB-231
SF-268 = test system: SF-268
HOP-62 = test system: HOP-62
UACC-257 = test system: UACC-257
RPMI-8226 = test system: RPMI-8226
SK-OV-3 = test system: SK-OV-3
OVCAR-4 = test system: OVCAR-4
HCT-15 = test system: HCT-15
HCC 2998 = test system: HCC 2998
A549 = test system: A549
NCI-H460 = test system: NCI-H460
MDA-N = test system: MDA-N
Malme-3M = test system: Malme-3M
SK-MEL-28 = test system: SK-MEL-28
PC-3 = test system: PC-3
TK-10 = test system: TK-10
A498 = test system: A498
HOP-92 = test system: HOP-92

Row | Structure (SMILES) | GI50 (IGROV-1) | GI50 (SK-MEL-5) | GI50 (MDA-MB-231) | GI50 (SF-268) | GI50 (HOP-62) | GI50 (UACC-257) | GI50 (RPMI-8226) | GI50 (SK-OV-3) | GI50 (OVCAR-4) | GI50 (HCT-15) [µM] | GI50 (HCC 2998) | GI50 (A549) | GI50 (NCI-H460) | GI50 (MDA-N) | GI50 (Malme-3M) | GI50 (SK-MEL-28) | GI50 (PC-3) | GI50 (TK-10) | GI50 (A498) | GI50 (HOP-92)
1 | Cc1c2cnccc2c(C)c2c1[nH]c1ccc(O)cc12 | 1.85 µM (inactive) | > 10 µM (inactive) | 1.57 µM (inactive) | 1.01 µM (active) | 1.02 µM (active) | 2.73 µM (inactive) | 1.59 µM (inactive) | 6.58 µM (inactive) | 2.33 µM (inactive) | 0.971 | 1.57 µM (inactive) | 1.52 µM (inactive) | 0.458 µM (active) | 2.79 µM (inactive) | 1.35 µM (inactive) | 3.01 µM (inactive) | 2.15 µM (inactive) | 3.91 µM (inactive) | – | –
2 | CC(C)(C)c1cc(C(CO)OCCOCCO)cc(C(C)(C)C)c1O (stereo not drawn) | > 100 µM (inactive) | > 100 µM (inactive) | > 100 µM (inactive) | > 100 µM (inactive) | > 100 µM (inactive) | > 100 µM (inactive) | > 100 µM (inactive) | > 100 µM (inactive) | > 100 µM (inactive) | > 100 | – | > 100 µM (inactive) | – | > 100 µM (inactive) | > 100 µM (inactive) | > 100 µM (inactive) | > 100 µM (inactive) | > 100 µM (inactive) | > 100 µM (inactive) | > 100 µM (inactive)
3 | C=CC[C@@]1(C(=O)OC)[C@H](Sc2ccccc2)C1(C)C | 26.9 µM (inactive) | 18.7 µM (inactive) | 69 µM (inactive) | 85.5 µM (inactive) | > 100 µM (inactive) | 34 µM (inactive) | 10.7 µM (inactive) | > 100 µM (inactive) | 43.7 µM (inactive) | 31 | 27 µM (inactive) | 32.5 µM (inactive) | 66.5 µM (inactive) | – | 29.4 µM (inactive) | 78.2 µM (inactive) | 47.3 µM (inactive) | > 100 µM (inactive) | 31.3 µM (inactive) | 13.8 µM (inactive)
4 | COc1ccc(C2C3CCc4ccccc4C3=NN2S(=O)(=O)c2ccc(Cl)cc2)cc1 (stereo not drawn) | 2.61 µM (inactive) | 16 µM (inactive) | 17.1 µM (inactive) | 18.4 µM (inactive) | 31.8 µM (inactive) | 17.3 µM (inactive) | 14 µM (inactive) | 0.0995 µM (active) | 30.3 µM (inactive) | 1.8 | – | 27.9 µM (inactive) | 15.8 µM (inactive) | 2.81 µM (inactive) | 59.3 µM (inactive) | – | 17.1 µM (inactive) | 32.4 µM (inactive) | – | 20 µM (inactive)
5 | O=NN1CCNC1Cc1ccccc1 (stereo not drawn) | > 100 µM (inactive) | 72.6 µM (inactive) | > 100 µM (inactive) | 43.4 µM (inactive) | 58.5 µM (inactive) | > 100 µM (inactive) | 70 µM (inactive) | 75.2 µM (inactive) | > 100 µM (inactive) | > 100 | > 100 µM (inactive) | > 100 µM (inactive) | 38.7 µM (inactive) | > 100 µM (inactive) | > 100 µM (inactive) | > 100 µM (inactive) | > 100 µM (inactive) | > 100 µM (inactive) | – | > 100 µM (inactive)
6 | COc1cccc(NC(=O)CC(=O)N2N=C(C)C(/N=N/c3ccc(C(=O)O)cc3)C2=O)c1 (stereo not drawn) | 46.7 µM (inactive) | > 100 µM (inactive) | > 100 µM (inactive) | > 100 µM (inactive) | > 100 µM (inactive) | > 100 µM (inactive) | > 100 µM (inactive) | – | > 100 µM (inactive) | > 100 | > 100 µM (inactive) | > 100 µM (inactive) | – | > 100 µM (inactive) | 56.6 µM (inactive) | > 100 µM (inactive) | > 100 µM (inactive) | > 100 µM (inactive) | – | –
7 | CCOC(=O)c1cnc(N(C)C)nc1SC(=N)N | > 100 µM (inactive) | > 100 µM (inactive) | > 100 µM (inactive) | > 100 µM (inactive) | > 100 µM (inactive) | > 100 µM (inactive) | > 100 µM (inactive) | > 100 µM (inactive) | > 100 µM (inactive) | > 100 | – | > 100 µM (inactive) | > 100 µM (inactive) | > 100 µM (inactive) | > 100 µM (inactive) | > 100 µM (inactive) | > 100 µM (inactive) | > 100 µM (inactive) | > 100 µM (inactive) | > 100 µM (inactive)
8 | O=C1Oc2ccccc2N/C1=C/C(=O)c1ccc(Cl)cc1 | > 100 µM (inactive) | 38.6 µM (inactive) | > 100 µM (inactive) | > 100 µM (inactive) | > 100 µM (inactive) | > 100 µM (inactive) | – | > 100 µM (inactive) | > 100 µM (inactive) | > 100 | 63.5 µM (inactive) | 60.3 µM (inactive) | > 100 µM (inactive) | 66.1 µM (inactive) | > 100 µM (inactive) | – | 28.1 µM (inactive) | > 100 µM (inactive) | > 100 µM (inactive) | –
